# Earlier results, collected in publication PMC7414093 (Proceedings of the National Academy of Sciences of the …, 2020).
# pEC50: −log10 of the molar value. Numbered stars: 1 amine (or outer) side, 2 acyl side, 3 side chain; on linkers, the order of the positions; unused ones are H or OH. Bridge positions count the residues as written; N and C are the ends. Square brackets hold non-standard residues; d marks the D form. Peptide text beside a SMILES is read from it. Phe(3,4-Cl2) = N[C@@H](Cc1ccc(Cl)c(Cl)c1)C(=O)O; X1 = NCCC(=O)N[C@@H](CN[*:2])C(=O)[*:1]; hhPhe = N[C@@H](CCCc1ccccc1)C(=O)O; NMeL = CN[C@@H](CC(C)C)C(=O)O; Orn = NCCC[C@H](N)C(=O)O
# Tested on: HA
# Design: method as in PMID 28971971
# Settings: AlphaLISA, HB80.4 as competitor for HA binding; cited from earlier work
structure (smiles),measurement,value
"CC(=O)N[C@@H](CCCc1ccccc1)C(=O)N[C@H]1CCCNC(=O)[C@@H](NC(=O)CCN)CNC(=O)[C@H](CO)NC(=O)[C@H](CC(C)C)NC(=O)[C@H](Cc2c[nH]c3ccccc23)NC(=O)[C@H](CCC(=O)O)NC(=O)[C@H](Cc2ccc(Cl)c(Cl)c2)NC(=O)[C@H](Cc2ccc(O)cc2)NC(=O)[C@H](CCC(=O)O)NC(=O)[C@H](CC(C)C)N(C)C1=O [P7] (Ac-[hhPhe][Orn][NMeL]EY[Phe(3,4-Cl2)]EWLS; linker 2-C via X1)",pEC50,7.15 to 7.52
